Patent publication US20010021697A1, “METHODS AND COMPOSITIONS FOR THE TREATMENT OF MAMMALIAN INFECTIONS EMPLOYING MEDICAMENTS COMPRISING HYMENOPTERA VENOM, PROTEINAGEOUS OR POLYPEPTIDE COMPONENTS THEREOF, OR ANALOGUES OF SUCH PROTEINACEOUS OR POLYPEPTIDE COMPONENTS” (priority 1987, published 2001)

Legend:
Format in all cases: cell-based
[1] = system: E. Coli strain No. G1108E; experiment: Checkerboard titration synergy assay of natural melittin and analogue #6 with polymyxin B; conditions: for synergistic activity with polymyxin B compared with natural melittin: E. coli, 10 ug peptide + 6 units polymyxin B
[2] = Relative activity of analogues with respect to native melittin
Procedure: Also some of then analogues mentioned above were tested to determine their relative activities with respect to native melittin. The relative activity is calculated as follows: [formula]

E. coli G1108E = experiment: Checkerboard titration synergy assay of melittin analogues with polymyxin B; conditions: 5 ug/ml peptide with 6 units/ml polymyxin B; delay time until mid-log phase (FIG. 26)
S. epidermidis = experiment: Automated MIC assay (Sensititre) of antibiotics with and without HBV; conditions: with vs without 4 ug/ml HBV
Streptococcus faecalis = experiment: as above; conditions: Streptococcus faecalis strain 81-; with vs without 4 ug/ml HBV
S. aureus = experiment: as above; conditions: with vs without 4 ug/ml HBV
[3] = S. aureus strain QC (printed 0C)

| Substance | Relative Activity [2] [%] | relative in vitro activity, place in ascending order (E. coli G1108E) | effect of 4 ug/ml HBV on the MIC of the antibiotic (S. epidermidis; S. epidermidis strain 5905) | effect of 4 ug/ml HBV on the MIC of the antibiotic (S. epidermidis; S. epidermidis strain 5907) | effect of 4 ug/ml HBV on the MIC of the antibiotic (S. epidermidis; S. epidermidis strain 7905) | effect of 4 ug/ml HBV on the MIC of the antibiotic (S. epidermidis; S. epidermidis strain 7908) | effect of 4 ug/ml HBV on the MIC of the antibiotic (S. epidermidis; S. epidermidis strain 39817) | effect of 4 ug/ml HBV on the MIC of the antibiotic (Streptococcus faecalis) | effect of 4 ug/ml HBV on the MIC of the antibiotic (S. aureus; S. aureus strain 51072) | effect of 4 ug/ml HBV on the MIC of the antibiotic (S. aureus; [3]) | further results |
| --- | --- | --- | --- | --- | --- | --- | --- | --- | --- | --- | --- |
| H-Gly-Ile-Gly-Ala-Val-Leu-Lys-Val-Leu-Thr-Thr-Gly-Leu-Pro-Ala-Leu-Ile-Ser-Trp-Ile-Lys-Lys-Lys-Lys-Gln-Gln-NH2 (H-GIGAVLKVLTTGLPALISWIKKKKQQ-NH2) [Analogue #6] | 100 | 4 |  |  |  |  |  |  |  |  | Average optical densities (OD660) ([1]; 0 hrs, doses of what is present: Polymyxin B 3 units, peptide 5 ug): .013; Average optical densities (OD660) ([1]; 0 hrs, doses of what is present: Polymyxin B 6 units, peptide 10 ug): .013; Average optical densities (OD660) ([1]; 2 hrs, doses of what is present: Polymyxin B 3 units, peptide 5 ug): .072; Average optical densities (OD660) ([1]; 2 hrs, doses of what is present: Polymyxin B 6 units, peptide 10 ug): .072; Average optical densities (OD660) ([1]; 4 hrs, doses of what is present: Polymyxin B 3 units, peptide 5 ug): .831; Average optical densities (OD660) ([1]; 4 hrs, doses of what is present: Polymyxin B 6 units, peptide 10 ug): .824; Average optical densities (OD660) ([1]; 6 hrs, doses of what is present: Polymyxin B 3 units, peptide 5 ug): 1.07; Average optical densities (OD660) ([1]; 6 hrs, doses of what is present: Polymyxin B 6 units, peptide 10 ug): 1.09; Average optical densities (OD660) ([1]; 8 hrs, doses of what is present: Polymyxin B 3 units, peptide 5 ug): 1.09; Average optical densities (OD660) ([1]; 8 hrs, doses of what is present: Polymyxin B 6 units, peptide 10 ug): 1.11; Average optical densities (OD660) ([1]; 12 hrs, doses of what is present: Polymyxin B 3 units, peptide 5 ug): 1.16; Average optical densities (OD660) ([1]; 12 hrs, doses of what is present: Polymyxin B 6 units, peptide 10 ug): 1.17; synergistic activity with polymyxin B compared with natural melittin [1]: At no time could a significant difference be detected; synergistic activity with polymyxin B compared with natural melittin ([1]; listed as Analogue No. 6): activity equivalent to natural melittin; difference between the specific activities of melittin versus analogue #6 ([1]; estimated from Table 11): less than 10% |
| Melittin (1-20) - Orn-Orn-Orn-Orn-Gln-Gln-NH2 [Analogue #2] | 200 | 6 |  |  |  |  |  |  |  |  |  |
| Penicillin |  |  | − (A (−) indicates a MIC decrease of less than two dilution steps.) | − (A (−) indicates a MIC decrease of less than two dilution steps.) | + (A (+) indicates a MIC decrease greater than or equal to two dilution steps.) | + (A (+) indicates a MIC decrease greater than or equal to two dilution steps.) | + (A (+) indicates a MIC decrease greater than or equal to two dilution steps.) | − (A (−) indicates a MIC decrease of less than two dilution steps.) | +^6 (A (+) indicates a MIC decrease greater than or equal to two dilution steps.) | −^5 (A (−) indicates a MIC decrease of less than two dilution steps.) |  |
| Venomycin |  |  | − (A (−) indicates a MIC decrease of less than two dilution steps.) | − (A (−) indicates a MIC decrease of less than two dilution steps.) | − (A (−) indicates a MIC decrease of less than two dilution steps.) | + (A (+) indicates a MIC decrease greater than or equal to two dilution steps.) | − (A (−) indicates a MIC decrease of less than two dilution steps.) | − (A (−) indicates a MIC decrease of less than two dilution steps.) | +^ (A (+) indicates a MIC decrease greater than or equal to two dilution steps.) | +^ (A (+) indicates a MIC decrease greater than or equal to two dilution steps.) |  |
